We go through 3 compounds from publication PMC7177633, “Effective Cellular Transport of Ortho-Halogenated Sulfonamide Derivatives of Metformin Is Related to Improved Antiproliferative Activity and Apoptosis Induction in MCF-7 Cells” (International Journal of Molecular Sciences, 2020).

Data set [1] deals with MDA-MB-231 cells. The data set can be described thus: Intracellular GSH and GSSG, MDA-MB-231. Format: cell-based, human. The method, then: The quantitative determination of glutathione and glutathione disulfide was performed using the enzymatic recycling method according to the protocol of Rahman. The cells were seeded at a density of 2 × 10^5 per well in a 6-well plate and cultured for 48 h. Then, the cells were treated with tested compounds 1, 4 and 7 at their respective ¼ and ½ IC50 values for MCF-7 and MDA-MB-231 cells. Additionally, controls with pure medium, AAPH (2,2′-Azobis(2-methylpropionamidine) dihydro-chloride, Sigma Aldrich, St. Louis, MO, USA) and ascorbic acid (Polish Chemical Reagents, Poland) were performed. The cells were incubated with compounds for another 24 h, then washed twice with 2 mL of cold, Ca^2+-/Mg^2+-free PBS (Biomed Lublin, Lublin, Poland). The cells were harvested using 1-mL accutase (Sigma Aldrich, St. Louis, MO, USA), and the wells were washed with 1 mL of cold growth medium. The cells were transferred to prechilled 2.0-mL Eppendorf tubes and centrifuged at 1000× g for 5 min at 4 °C. The supernatant was discarded, the pellets were resuspended in 1 mL of cold PBS, the number of cells was determined in each sample and the cellular suspension was centrifuged again. PBS was discarded, and the pellets were stored covered with 30-µL PBS at –70 °C. The following day, the cells were suspended in 0.5 mL of ice-cold extraction buffer (0.1% Triton-X (Polish Chemical Reagents, Gliwice, Poland) and 0.6% sulfosalicylic acid (Sigma Aldrich) in a potassium phosphate buffer with EDTA (Sigma Aldrich)) and sonicated in icy water for 3 min with vortexing every 30 s. The cells were frozen once again at −80 °C, defrosted on ice and frozen once again. Following the second freeze–thaw cycle, the cells were centrifuged at 1500× g for 5 min at 4 °C, and then, immediately, the supernatant was transferred to prechilled Eppendorf tubes. The samples were divided into two parts: one was used to measure GSH, and the other one was derivatized by an addition of 4 µL of 2-vinylpyridine (diluted 1:10 with phosphate buffer) (Sigma Aldrich, St. Louis, MO, USA) to determine the GSSG content.
GSH measurements included an addition of 20 µL of the tested sample, blank or GSH standard, 120 µL of the mixture of an equal volume of DTNB solution (2 mg dissolved in 3 mL of phosphate buffer, Sigma Aldrich) and glutathione reductase (10 U in 3 mL of phosphate buffer, Sigma Aldrich, St. Louis, MO, USA) and 30 s of incubation to allow the conversion of GSSG to GSH. The final step included the addition of 60 µL of β-NADPH (2 mg dissolved in 3 mL of phosphate buffer, Sigma Aldrich). The absorbance was read immediately at 415 nm in a microplate reader (Bio-Rad), and the measurements were taken every 30 s for 2 min (6 readings in total). The amount of GSH was calculated on the basis of the calibration curve prepared using GSH (Sigma Aldrich, St. Louis, MO, USA) at concentrations ranging from 0.040 to 2.6 nmol/mL.
The quantification of GSSG in the test samples was performed according to the same procedure as GSH. The samples treated with 2-VP were incubated for one hour at room temperature, and then, 20 µL of the tested sample was analyzed using the same reagents which were applied in the GSH measurements. The amount of GSSG was calculated on the basis of the calibration curve, prepared using GSSG (Sigma Aldrich) at concentrations of 0.040–2.6 nmol/mL. The results are presented as mean ± SD, n = 6–8 and expressed as nmol per […].

The subject of a further data set is MCF-7 cells. The data set can be described thus: Uptake in the presence of OCT and MATE inhibitors, MCF-7 cells. Format: in vitro ADME, human. The settings on record: for uptake in the presence of cimetidine, MCF-7 / uptake in the presence of lopinavir, MCF-7 / uptake in the presence of disopyramide, MCF-7 / uptake in the presence of methenamine, MCF-7: compound and inhibitor 400 and 800 µmol/L, 10 min, 37 °C; for interactions with OCT, PMAT and MATE1 transporters, MCF-7: summary from uptake with inhibitors. In a few lines:
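Cells incubated 10 min at 37 °C in HBSS with metformin sulfonamide derivatives at 400 and 800 μmol/L plus disopyramide, cimetidine, lopinavir or methenamine as OCT/MATE/PMAT inhibitors. Intracellular compound concentration then determined by the previously described protocol.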

Data set [2] relates to MDA-MB-231 cells. The data set can be described thus: Cell cycle analysis (PI, flow cytometry), MDA-MB-231. Particulars: MDA-MB-231, 24 h, 2600 µmol/L (IC50 value). In kind it is cell-based, human. The method, then: MCF-7 and MDA-MB-231 cells were seeded in 6-well plates at a density of 2 × 10^5 cells per well and cultured for 24 h under standard conditions (with 2 mL of the medium). Next, cells were exposed to the tested compounds at concentrations corresponding to IC50. After 24 h of treatment, control and treated cells were then collected (washed with cold PBS and treated with accutase), transferred to Eppendorf tubes and centrifuged (1100 rpm, 5 min, 5 °C). The supernatant was discarded, cold PBS was added (1 mL) and the cells were centrifuged (1200 rpm, 5 min). The solution was removed, and the cells were fixed in cold 70% ethanol at 4 °C. Prior to the analysis, the cells were centrifuged (3600 rpm, 5 min) and washed twice with PBS. The solution was discarded, the pellets were suspended in 200 µL of PBS and incubated with ribonuclease at 37 °C (25 µL, final concentration in a sample was 100 µg/mL) for 30 min and stained with propidine iodide (12.5 µL, final concentration in a sample was 50 µg/mL) in darkness at room temperature for additional 20 min. The final volume of the sample was 250 µL.
DNA content and the number of cells in individual cell cycle phases was measured by flow cytometry (CytoFlex, blue laser, 480 nm, Beckman-Coulter, Indianapolis, IN, USA). Cells (20,000) were analyzed from each sample. The percentage of cells in each cell cycle phase was calculated from live cells that were expressed as 100%. The data are presented as the mean ± SD of three independent experiments. The coefficients of variation for the assay were established (CV = 0.37–11.78%, depending on the cell population).
For orientation: A flow cytometer gives signals particle by particle.

With `CN(C)C(=N)N=C(N)NS(=O)(=O)c1ccccc1F` [Compound 7], in the data set with MDA-MB-231 cells [1] (MDA-MB-231, 1/2 × IC50, 24 h), the GSH turned out to be 248.7 ± 13.3 nmol/1 mln Cells, the “GSH:GSSG Ratio” value worked out at 11.3 and the GSSG is reported as 21.9 ± 2.9 nmol/1 mln Cells. In addition, in the data set on MDA-MB-231 cells [1] (MDA-MB-231, 1/4 × IC50, 24 h), the GSH turned out to be 265.0 ± 15.9 nmol/1 mln Cells, the “GSH:GSSG Ratio” value is reported as 11.8 and the GSSG worked out at 22.5 ± 0.9 nmol/1 mln Cells. In the data set with MCF-7 cells, the “uptake in the presence of cimetidine, MCF-7” value (“uptake … of cimetidine, MCF-7” for short) is on record as “decrease in uptake”; the “uptake in the presence of lopinavir, MCF-7” value (from here on “uptake … of lopinavir, MCF-7”) was “increase in its uptake”; the “interactions with OCT, PMAT and MATE1 transporters, MCF-7” value (“interactions with OCT” for short) is “OCT3, PMAT”. In addition, in the data set with MDA-MB-231 cells [2], the G0/G1 came to 64.31 ± 1.13 %, the G2/M came to 12.24 ± 0.10 %, the S was found to be 19.99 ± 0.97 % and the “Sub G0/G1” value was found to be 3.41 ± 0.08 %.
Take `CN(C)C(=N)N=C(N)NS(=O)(=O)c1ccccc1Br` [Compound 4]: in the data set on MDA-MB-231 cells [1] (MDA-MB-231, 1/2 × IC50, 24 h), the GSH is 242.1 ± 13.7 nmol/1 mln Cells, the “GSH:GSSG Ratio” value was determined as 12.3 and the GSSG was determined as 19.6 ± 1.4 nmol/1 mln Cells. Moreover, in the data set with MDA-MB-231 cells [1] (MDA-MB-231, 1/4 × IC50, 24 h), the GSH was 250.2 ± 12.1 nmol/1 mln Cells, the “GSH:GSSG Ratio” value amounted to 12.5 and the GSSG came to 19.9 ± 2.3 nmol/1 mln Cells. Further, in the data set on MCF-7 cells, the “uptake … of cimetidine, MCF-7” value was “did not change”; the “uptake in the presence of disopyramide, MCF-7” value was “increased the uptake”; the “uptake … of lopinavir, MCF-7” value is recorded as “increased the uptake”; the “uptake in the presence of methenamine, MCF-7” value is given as “did not change”. In addition, in the data set with MCF-7 cells, the “interactions with OCT” value is “OCT1, PMAT”.
Turning to `CN(C)C(=N)N=C(N)NS(=O)(=O)c1ccccc1Cl` [Compound 1], in the data set on MDA-MB-231 cells [1] (MDA-MB-231, 1/2 × IC50, 24 h), the GSH was found to be 242.0 ± 47.0 nmol/1 mln Cells, the “GSH:GSSG Ratio” value was found to be 12.1 and the GSSG worked out at 19.9 ± 2.0 nmol/1 mln Cells. In addition, in the data set on MDA-MB-231 cells [1] (MDA-MB-231, 1/4 × IC50, 24 h), the GSH worked out at 238.0 ± 4.3 nmol/1 mln Cells, the “GSH:GSSG Ratio” value is reported as 12.2 and the GSSG worked out at 19.5 ± 2.2 nmol/1 mln Cells. In the data set with MCF-7 cells, the “uptake … of cimetidine, MCF-7” value is listed as “significantly decreased”; the “uptake in the presence of disopyramide, MCF-7” value is reported as “Lower uptake, however, not statistically significant”; the “uptake … of lopinavir, MCF-7” value is listed as “significantly higher uptake”; the “uptake in the presence of methenamine, MCF-7” value is on record as “significantly decreased”. Further, the “interactions with OCT” value in the data set with MCF-7 cells is on record as “OCT1, OCT3, PMAT, MATE1”.
